Data on three compounds can be found in publication PMC9592857, “Voltage dependence of the cannabinoid CB1 receptor” (Frontiers in Pharmacology, 2022).

Common to all, as to format: cell-based
One assay deals with T1, GIRK channel (Homo sapiens, UniProt P48051+P48549).
T1 construct: expressed in transfected cells; host or cells: Xenopus laevis oocytes injected with cRNA
T1 sequence (P48549 1-501): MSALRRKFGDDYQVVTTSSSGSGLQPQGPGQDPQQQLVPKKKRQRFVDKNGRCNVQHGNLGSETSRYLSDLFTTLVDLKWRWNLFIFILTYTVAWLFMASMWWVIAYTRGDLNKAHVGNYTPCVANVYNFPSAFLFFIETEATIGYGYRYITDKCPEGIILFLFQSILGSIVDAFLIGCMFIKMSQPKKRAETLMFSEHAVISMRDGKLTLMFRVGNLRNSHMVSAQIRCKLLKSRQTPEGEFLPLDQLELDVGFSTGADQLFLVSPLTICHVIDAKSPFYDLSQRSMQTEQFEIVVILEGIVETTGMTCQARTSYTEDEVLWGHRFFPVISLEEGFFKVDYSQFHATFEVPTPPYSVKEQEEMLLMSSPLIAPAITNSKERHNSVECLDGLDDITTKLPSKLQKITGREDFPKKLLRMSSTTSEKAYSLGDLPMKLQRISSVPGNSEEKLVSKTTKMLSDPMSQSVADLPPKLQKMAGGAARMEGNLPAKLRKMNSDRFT
T1 sequence (P48051 1-423): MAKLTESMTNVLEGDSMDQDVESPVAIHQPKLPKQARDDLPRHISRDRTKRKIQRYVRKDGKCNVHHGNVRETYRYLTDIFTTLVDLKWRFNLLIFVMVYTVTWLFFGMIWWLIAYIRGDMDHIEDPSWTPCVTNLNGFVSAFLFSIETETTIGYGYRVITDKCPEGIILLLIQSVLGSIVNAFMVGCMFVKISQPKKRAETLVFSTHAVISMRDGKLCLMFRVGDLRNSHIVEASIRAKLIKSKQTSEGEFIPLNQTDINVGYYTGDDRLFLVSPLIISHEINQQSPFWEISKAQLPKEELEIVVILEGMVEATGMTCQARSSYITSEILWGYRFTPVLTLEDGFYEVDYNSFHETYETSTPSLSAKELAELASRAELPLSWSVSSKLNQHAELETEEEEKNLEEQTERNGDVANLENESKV
As to the kind of experiment: Receptor-independent effect on GIRK channels in oocytes expressing the GIRK channel but not the CB1 receptor. The settings on record: for effect of application on GIRK currents: 10 µM, oocyte expressing the GIRK channel only; for direct effect on the GIRK channel: oocytes without CB1 receptor, any membrane potential. The method, then: Figure S1. […] (A) A representative recording from an oocyte expressing the GIRK channel. […] (B) Current -Voltage (I-V) curve of IK before (black) and after (red) the application of 2-AG. The oocytes were voltage clamped to -80 mV and the currents after depolarizing pulses to various holding potentials from –80 mV to +40 mV at 10 mV increments were measured. Data is mean ± SEM from 7 oocytes. The difference between the two conditions is not significant (paired t-test, p>0.11 for all voltages).
Figure S2. Effect of AEA on GIRK channels. (A) A representative recording from an oocyte expressing the GIRK channel. […] (B) Current-voltage I-V curve of IK before (black) and after (red) the application of AEA. The oocytes were voltage clamped to -80 mV and the currents after depolarizing pulses to various holding potentials from –80 mV to +40 mV at 10 mV increments were measured. Data is mean ± SEM from 7 oocytes. The difference between the two conditions is not significant (paired t-test, p>0.13 for all voltages).
Figure S3. Effect of THC on GIRK channels. (A) A representative recording from an oocyte expressing the GIRK channel. […] (B) I-V curve of IK before (black) and after (red) the application of THC. The oocytes were voltage clamped to -80 mV and the currents after depolarizing pulses to various holding potentials from –80 mV to +40 mV at 10 mV increments were measured. Data is mean ± SEM from 5 oocytes. The difference between the two conditions is not significant (paired t-test, p>0.23 for all voltages).

The target of assay [1] is T2, CB1 receptor (Homo sapiens, UniProt P21554).
T2 construct: expressed in transfected cells; host or cells: Xenopus laevis oocytes injected with cRNA; plasmid was a gift of Ken Mackie
T2 sequence (P21554 whole entry): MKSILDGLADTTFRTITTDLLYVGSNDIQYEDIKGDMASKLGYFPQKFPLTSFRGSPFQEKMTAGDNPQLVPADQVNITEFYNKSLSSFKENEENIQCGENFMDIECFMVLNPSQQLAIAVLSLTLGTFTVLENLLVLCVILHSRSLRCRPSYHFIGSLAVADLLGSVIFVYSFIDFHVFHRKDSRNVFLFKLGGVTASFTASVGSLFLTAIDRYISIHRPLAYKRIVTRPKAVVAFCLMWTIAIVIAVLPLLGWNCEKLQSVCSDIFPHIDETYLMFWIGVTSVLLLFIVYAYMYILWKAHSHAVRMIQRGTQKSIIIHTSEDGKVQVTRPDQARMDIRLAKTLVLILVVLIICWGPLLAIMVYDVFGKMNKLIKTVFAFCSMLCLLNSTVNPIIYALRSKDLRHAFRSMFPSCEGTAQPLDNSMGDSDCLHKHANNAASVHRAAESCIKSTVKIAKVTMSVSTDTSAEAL
As to conditions: for mean time constant of deactivation: same oocyte at both potentials, 10 oocytes.

Assay [2] deals with T2, CB1 receptor.

Where two headings read alike, the source gives them in different places.

In the case of `CCCCC/C=C\C/C=C\C/C=C\C/C=C\CCCC(=O)OC(CO)CO` [2-AG, 2-Arachidonoylglycerol], at GIRK channel, the “effect of application on GIRK currents” value was “did not evoke GIRK currents or inhibited basal GIRK currents” and the “direct effect on the GIRK channel” value is “do not have any direct effect”. Also, the “mean time constant of deactivation” value at CB1 receptor [1] (+40 mV) is listed as 42.6 ± 19.8. Also, the “dissociation time constant from the receptor (decay of GIRK current after washout)” value on CB1 receptor [1] (-80 mV, both agonists in the same oocytes, n = 20, mean±SD) was 30.4 ± 11.7 s. At CB1 receptor [1] (-80 mV), the “mean time constant of deactivation” value came to 25.4 ± 14.9. In addition, the “enhancement of potency toward the CB1 receptor by depolarization” value on CB1 receptor [2] (+40 mV versus -80 mV) was “about 4 fold”. Moreover, the “V50 (the voltage that shows half-maximal effect), Boltzmann fit” value on CB1 receptor [2] (relative activation by 100 nM agonist, -80 mV to +40 mV) is recorded as −45 mV.

Take `CCCCC/C=C\C/C=C\C/C=C\C/C=C\CCCC(=O)NCCO` [AEA, anandamide]: at GIRK channel, the “effect of application on GIRK currents” value was “did not evoke GIRK currents or inhibited basal GIRK currents” and the “direct effect on the GIRK channel” value is listed as “do not have any direct effect”.

Regarding (-)-Δ9-Tetrahydrocannabinol [THC], on GIRK channel, the “effect of application on GIRK currents” value is recorded as “did not evoke GIRK currents or inhibited basal GIRK currents” and the “direct effect on the GIRK channel” value was “do not have any direct effect”.
